In experiment [1] the test system is P. multocida. Put plainly: Murine P. multocida intranasal challenge study, treatment 18 hours after challenge, survival. It counts as in vivo, mice. The following applies: subcutaneous 18 hours after challenge (5×10^3 CFU/mouse); tulathromycin 16 mg/kg, M9 32 mg/kg, ceftiofur 9 mg/kg. The protocol: In one murine P. multocida intranasal challenge study, mice were administered tulathromycin (16 mg/kg; T02), M9 (32 mg/kg; T03), or ceftiofur (9 mg/kg; T04) by subcutaneous injection 18 hours after bacterial challenge (5×10^3 CFU/mouse) for lung tissue RNA sequence analysis. Survival at Day 7 was about 80%, 50%, and 90% for T02, T03, and T04, respectively, compared to placebo at 0%. Differential gene expression from total lung tissue RNA sequence analysis indicated at least 226 unique genes were up or down regulated (with significance) for T03. Output from ingenuity pathway analysis of these unique genes predicted major upstream regulators of the involved pathways. Data was analyzed based on the number of genes being modulated in the same direction that were associated with a given upstream regulator. An activation z-score of 2 or greater is considered significant and the direction change is indicated by + (activated) or -(inhibited). The top 5 pathways included: IL-9 signaling, glucocorticoid receptor signaling, prolactin signaling, JAK STAT signaling, and IL-17 signaling. The top 6 upstream regulators (activation z-score) included: lipopolysaccharide (−6.725), TNF (−4.669), IFNγ (−5.759), IL-1β (−5.947), STAT1 (−2.787), and poly rl: rC-RNA (−5.289). Even though this study was run in the murine model, the top upstream regulators identified as being modulated by M9 include an almost ubiquitous overlap with the pathways identified in the natural disease study as being key mediators in BRD, and therefore is modulating highly relevant pathways in BRD pathobiology.

Experiment [2] deals with P. multocida. Put plainly: MIC, P. multocida strains. It counts as cell-based. The source says: (§1) Primary screening of the compounds of the invention included the evaluation of antibacterial activity of analogs through determination of microbial inhibition concentration (MIC) as per CLSI guidelines. The screening panel included the relevant BRD pathogens: 1) M. haemolytica (e.g., 12726, 46571 and 49023, all AHDRCC; and 33396 (ATCC)); and 2) P. multocida (e.g., 34135 and 46572 (both AHDRCC) and 43137 (ATCC)). In some instances, H. somni (A700025K) pathogens were also included in the screening panel. The AHDRCC strains originated from the Zoetis BRD/SRD surveillance program and refer to the Animal Health Development and Research Culture Collection. In addition, the screen assessed S. aureus (29213 ATCC) as a representative Gram-positive isolate, E.faecalis (19433 ATCC) as a commensal gram-positive gastrointestinal bacterium and E. coli (100, 3110 and 25922 (ATCC)) for the evaluation of efflux potential. The screening panel BRD pathogens were assessed in determining antibacterial activity of the Formula (1) compounds.
(§2) All relevant BRD pathogens were initially screened at a top concentration of 64 μg/mL of a Formula (1) compound in an eleven-point dilution series. […] If an Example was purified further, the MICs moved […] essentially two dilutions across all strains tested in the screening panel.
(§3) In-Vitro MIC Model Compounds were analyzed for antibacterial activity against a panel of animal health specific gram-positive and gram-negative clinical strains by diluting compounds in DMSO to an appropriate stock concentration to determine the Minimal Inhibitory Concentration (MIC) via a semi-automated broth micro-dilution method (CLSI reference method) with QC strains and anti-microbial agent(s). Specifically, bacteria were grown overnight on TSA w/5% sheep blood agar plates and diluted in saline buffer to a McFarland Standard 0.5, then further diluted in cation-ion adjusted Mueller Hinton Broth to a final concentration of approximately 5×10^5 CFU/mL. 100 μL of inoculated media was added to 96-well plate(s) with 3 μL of serially diluted compound in each row. Depending on strain (see CLSI reference method), bacteria were incubated 18-22 hours at 35-37° C. in ambient air, with 5% CO2 or anaerobically (up to 48 hours).

Experiment [3] concerns natural bovine respiratory disease (BRD). Description: Natural bovine respiratory disease study, treatment failure. The settings on record: Zactran group T04 (dose not given), 14-day observation. It counts as in vivo, beef calves.
In experiment [4] the test system is M. haemolytica. Description: MIC, M. haemolytica strains. It is filed as cell-based.
Excerpt: as §1, §2, §3

The subject of experiment [5] is H. somni. Description: MIC, H. somni strains. It counts as cell-based.
Excerpt: as §1, §2, §3

Setting [6] is: lung isolates at necropsy, natural BRD study, n=33.
Setting [7] is: lung isolates at necropsy, natural BRD study, n=116.
Setting [8] is: lung isolates at necropsy, natural BRD study, n=25.

For orientation: MIC50 means an inhibitory concentration at the 50% level, which refers to growth in some studies and to a panel of isolates in others. A word on the MIC90: it is the lowest concentration that inhibits either 90% of growth or 90% of the strains tested, depending on the study. High values mean weaker potency, low ones greater potency.

Converted amounts (≈) assume the structure as drawn.

For the molecule `CO/N=C(\C(=O)N[C@@H]1C(=O)N2C(C(=O)O)=C(CSC(=O)c3ccco3)CS[C@H]12)c1csc(N)n1` [ceftiofur], in experiment [1], the “Survival at Day 7” value is roughly 90%.

On to `CCCN1C[C@H](C)[C@@H](O)[C@](C)(O)[C@@H](CC)OC(=O)[C@H](C)[C@@H](O[C@H]2C[C@@](C)(OC)[C@@H](O)[C@H](C)O2)[C@H](C)[C@@H](O[C@@H]2O[C@H](C)C[C@H](N(C)C)[C@H]2O)[C@](C)(O)C[C@H]1C` [gamithromycin, reference compound], for which the values for the MIC50 in experiment [2] (setting [6]), in experiment [4] (setting [7]) and in experiment [5] (setting [8]) were 1 µg/mL (≈ 1.29 µM), 1 µg/mL (≈ 1.29 µM) and 0.25 µg/mL (≈ 0.322 µM), respectively. The MIC90 in experiment [2] (setting [6]) is greater than 64 µg/mL; in experiment [4] (setting [7]), greater than 64 µg/mL; in experiment [5] (setting [8]) it was 2 µg/mL (≈ 2.57 µM). Moreover, the “MIC values, range” value fell in the range of 1 to 2 µg/mL in experiment [2] (the same P. multocida strains of the panel), 0.5 to 1 µg/mL in experiment [4] (the same M. haemolytica strains of the panel) and 0.25 to 8 µg/mL in experiment [5] (H. somni strains). Further, the Percent failure in experiment [3] was found to be 29.8%. Further, in experiment [5] (setting [8]), the “MIC Range” value fell in the range of 0.12 to 2 µg/mL.

The values above are taken from patent publication US20250236616A1, “IMMUNOMODULATING AZALIDES” (Zoetis Services LLC, priority 2021, published 2025).
